# Experimental data as given in PubChem BioAssay AID248 (DTP/NCI, 2004).
# Several values for one entry are separate records, joined by “and”; a condition that tells them apart may be missing. Equal entries are not always repeated. Toxic doses and inconclusive results are not listed.
# Test system: L1210 leukemia ip in BDF1 mice, survival T/C
# Assay: NCI In Vivo Anticancer Drug Screen. Data for tumor model L1210 Leukemia (intraperitoneal) in B6D2F1 (BDF1) mice
# Settings: endpoint: mean survival time, higher = longer survival
# Outline: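 In this screen, tumor-bearing mice given compound are compared to those given vehicle, and their survival values are reported as a treated-to-control quotient.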
# [1] = dose: 12.5 mg/kg/injection, schedule: Q04DX002 (ip), vehicle: Klucel (hydroxypropylcellulose) (HPC)
# [2] = dose: 25.0 mg/kg/injection, schedule: Q04DX002 (ip), vehicle: Klucel (hydroxypropylcellulose) (HPC)
# [3] = dose: 50.0 mg/kg/injection, schedule: Q04DX002 (ip), vehicle: Klucel (hydroxypropylcellulose) (HPC)
# [4] = dose: 100.0 mg/kg/injection, schedule: Q04DX002 (ip), vehicle: Klucel (hydroxypropylcellulose) (HPC)
# [5] = dose: 200.0 mg/kg/injection, schedule: Q04DX002 (ip), vehicle: Klucel (hydroxypropylcellulose) (HPC)
# [6] = dose: 400.0 mg/kg/injection, schedule: Q04DX002 (ip), vehicle: Klucel (hydroxypropylcellulose) (HPC)
# [7] = dose: 100.0 mg/kg/injection, schedule: Q04DX003 (ip), vehicle: saline with Tween-80
# [8] = dose: 200.0 mg/kg/injection, schedule: Q04DX003 (ip), vehicle: saline with Tween-80
# [9] = dose: 400.0 mg/kg/injection, schedule: Q04DX003 (ip), vehicle: saline with Tween-80
# [10] = dose: 100.0 mg/kg/injection, schedule: Q01DX009 (ip), vehicle: Klucel (hydroxypropylcellulose) (HPC)
# [11] = dose: 100.0 mg/kg/injection, schedule: Q04DX003 (ip), vehicle: Klucel (hydroxypropylcellulose) (HPC)
# [12] = dose: 200.0 mg/kg/injection, schedule: Q01DX009 (ip), vehicle: Klucel (hydroxypropylcellulose) (HPC)
# [13] = dose: 200.0 mg/kg/injection, schedule: Q04DX003 (ip), vehicle: Klucel (hydroxypropylcellulose) (HPC)
# [14] = dose: 400.0 mg/kg/injection, schedule: Q04DX003 (ip), vehicle: Klucel (hydroxypropylcellulose) (HPC)
# [15] = dose: 100.0 mg/kg/injection, schedule: Q01DX001 (ip), vehicle: saline
# [16] = dose: 200.0 mg/kg/injection, schedule: Q01DX001 (ip), vehicle: saline
# [17] = dose: 400.0 mg/kg/injection, schedule: Q01DX001 (ip), vehicle: saline
structure (smiles),measurement,setting,value
CC[CH2][Sn]([CH2]CC)[CH2]CC.CC[CH2][Sn]([CH2]CC)[CH2]CC,T/C,"dose: 12.5 mg/kg/injection, schedule: Q01DX009 (sc), vehicle: olive oil, sesame oil, peanut oil",97 % of control
same,T/C,"dose: 25.0 mg/kg/injection, schedule: Q01DX009 (sc), vehicle: olive oil, sesame oil, peanut oil",100 % of control
same,T/C,"dose: 25.0 mg/kg/injection, schedule: Q04DX002 (sc), vehicle: olive oil, sesame oil, peanut oil",102 % of control
same,T/C,"dose: 50.0 mg/kg/injection, schedule: Q04DX002 (sc), vehicle: olive oil, sesame oil, peanut oil",102 % of control
same,T/C,"dose: 100.0 mg/kg/injection, schedule: Q04DX002 (sc), vehicle: olive oil, sesame oil, peanut oil",115 % of control
O=C(O)c1ccc(S(=O)(=O)Cl)cc1,T/C,[1],97 % of control
same,T/C,[2],90 % of control
same,T/C,[3],107 % of control
O=C(O)c1ccc(F)cc1F,T/C,[4],121 % of control
same,T/C,[5],105 % of control
same,T/C,[6],98 % of control
CC(C(=O)c1cc(O)c(O)cc1C(O)(C(F)(F)F)C(F)(F)F)C(O)(C(F)(F)F)C(F)(F)F (stereo unspecified),T/C,[7],102 % of control
same,T/C,[8],98 % of control
same,T/C,[9],98 % of control
C/C(=C\CC1(C)C(=O)CCC2(C)C1CCCC21OCCO1)Sc1ccc(Cl)cc1 (stereo unspecified),T/C,[4],89 % of control
same,T/C,[5],95 % of control
same,T/C,[6],110 % of control
N#CC1(O)C(Cl)(Cl)CCCC1(Cl)Cl,T/C,"dose: 6.25 mg/kg/injection, schedule: Q01DX009 (ip), vehicle: saline with Tween-80",91 % of control
same,T/C,"dose: 12.5 mg/kg/injection, schedule: Q01DX009 (ip), vehicle: saline with Tween-80",97 % of control
same,T/C,"dose: 25.0 mg/kg/injection, schedule: Q01DX009 (ip), vehicle: saline with Tween-80",94 % of control
Nc1nc([Se])c2ncn(C3CC(O)C(CO)O3)c2n1 (stereo unspecified),T/C,"dose: 12.5 mg/kg/injection, schedule: Q01DX009 (ip), vehicle: saline",196 % of control
same,T/C,"dose: 25.0 mg/kg/injection, schedule: Q01DX005 (ip), vehicle: saline",150 % of control and 151 % of control
same,T/C,"dose: 25.0 mg/kg/injection, schedule: Q01DX009 (ip), vehicle: saline",171 % of control
same,T/C,"dose: 50.0 mg/kg/injection, schedule: Q01DX005 (ip), vehicle: saline",123 % of control
same,T/C,"dose: 50.0 mg/kg/injection, schedule: Q01DX009 (ip), vehicle: saline",150 % of control
Nc1c(Br)cc(O)c2c1C(=O)c1ccccc1C2=O,T/C,[10],88 % of control
same,T/C,[11],100 % of control
same,T/C,[12],90 % of control
same,T/C,[13],100 % of control
same,T/C,"dose: 400.0 mg/kg/injection, schedule: Q01DX009 (ip), vehicle: Klucel (hydroxypropylcellulose) (HPC)",90 % of control
same,T/C,[14],96 % of control
COc1cc2c(cc1OC)/C(=C\C#N)NCC2,T/C,[15],98 % of control
same,T/C,[16],98 % of control
same,T/C,[17],100 % of control
CCCCCCCCCCCCc1cc2ccccc2c2ccccc12,T/C,[15],98 % of control
same,T/C,[16],95 % of control
same,T/C,[17],89 % of control
Cn1c(=O)cc(C=Nc2ccc(N=Nc3ccccc3)cc2)c2ccccc21,T/C,[15],94 % of control
same,T/C,[16],96 % of control
same,T/C,[17],87 % of control
O=C(O)C12CCC(CC1)C1CCC2CC1,T/C,[1],101 % of control
same,T/C,[2],105 % of control
same,T/C,[3],116 % of control
C=C(C)C(Br)=C(C)C,T/C,"dose: 100.0 mg/kg/injection, schedule: Q01DX001 (ip), vehicle: DMSO",96 % of control
N#Cc1c(N)ncc2c1CCCC2,T/C,"dose: 50.0 mg/kg/injection, schedule: Q01DX009 (ip), vehicle: Klucel (hydroxypropylcellulose) (HPC)",102 % of control
same,T/C,[10],98 % of control
same,T/C,[12],105 % of control
O=C1/C(=C\c2ccc([N+](=O)[O-])cc2)N2CCC1CC2,T/C,[4],102 % of control
same,T/C,[5],94 % of control
same,T/C,[6],105 % of control
CC(C)CNC(=O)Oc1cccc(NC(=O)N(C)C)c1,T/C,[7],92 % of control
same,T/C,[8],94 % of control
same,T/C,[9],94 % of control
N#C/C(=C\c1ccccc1)C(=O)Nc1ccccc1,T/C,[11],94 % of control
same,T/C,[13],92 % of control
same,T/C,[14],92 % of control
